Measurements taken from patent US8367622B2, “Sulfated C-glycoside, method for isolating same and method for synthesizing same” (Shizuoka Prefecture Public University Corporation, priority 2009, dated 2013).
“Also recorded” adds a separate entry of the source. Read-outs that look alike come from different tables or passages of the source.

Experiments:
[1] = system: atopic disease model induced by 2,4-dinitro-fluorobenzene; details: cited from earlier work; for activity in atopic disease model: oral administration, ingredients isolated from oolong tea
[2] = system: intestinal polyp formation induced by azoxymethane (AOM); details: 2.5 mg/kg, same dosage as indomethacin; cited from earlier work
[3] = Liquid-liquid partition with water and n-BuOH; format: physicochemical; details: qualitative
Experimental: 1 g of oolong tea leaves prepared from Shizu 7132 was ground and was subjected to extract with MeOH, 50%-MeOH and water (1 ml) under reflux. After concentrating, drying and solidifying the extract liquid under reduced pressure, it was suspended in water (0.4 ml) and then was extracted with n-BuOH (4 ml and 1 ml). All of the extracts, their aqueous fractions and n-BuOH fractions obtained by liquid-liquid partition thereof were heated at 160° C. for 40 minutes.
(§1) In the result, the production of chafurosides A and B by heating was detected only in all of the extracts and their aqueous fractions.

[4] = Water solubility; format: physicochemical
Text: Considering the fact that sulfation has been correlated with mechanism of detoxification elimination in metabolism, the presence of precursors of chafuroside which are sulfated derivatives in tea leaves has great significance. As for isovitexin and vitexin, their anticancer effect, effect of reducing damages by UV irradiation, inhibiting effect of COX, antioxidant effect, antianxiety effect and the like have been drawing the attention recently.
as §1

SMILES | activity in atopic disease model [1] | fraction after liquid-liquid partition water / n-butanol [3] | solubility in water ([4]; qualitative) | solubility in water [4] | further results
O=c1cc(-c2ccc(O)cc2)oc2cc3c(c(O)c12)[C@@H]1O[C@H](CO)[C@@H](O)[C@H](O)[C@@H]1O3 [chafuroside A] | exhibiting activities via oral administration |  |  |  | dermal inflammation-inhibiting activity ([1]; 10 μg/kg, comparable with Prednisolone (10 mg/kg) and Betamethasone (0.8 mg/kg)): significant dermal inflammation-inhibiting activity; inhibiting activity against intestinal polyp formation [2]: effectively-inhibiting activity
O=c1cc(-c2ccc(O)cc2)oc2c3c(cc(O)c12)O[C@H]1[C@@H](O)[C@H](O)[C@@H](CO)O[C@@H]31 [chafuroside B] | exhibiting activities via oral administration |  |  |  | 
O=c1cc(-c2ccc(O)cc2)oc2cc(O)c([C@@H]3O[C@H](CO)[C@@H](O)[C@H](O)[C@H]3O)c(O)c12 [isovitexin] |  | move to the n-butanol solvent fraction | very poorly soluble in water |  | fraction after liquid-liquid partition water / n-butanol ([3]; listed as Isovitexin): move to n-BuOH fractions
O=c1cc(-c2ccc(O)cc2)oc2cc(O)c([C@@H]3O[C@H](CO)[C@@H](O)[C@H](O)[C@H]3OS(=O)(=O)O)c(O)c12 [prechafuroside A, isovitexin 2″-O-sulfate] |  |  |  | high water solubility | 
O=c1cc(-c2ccc(O)cc2)oc2c([C@@H]3O[C@H](CO)[C@@H](O)[C@H](O)[C@H]3OS(=O)(=O)O)c(O)cc(O)c12 [prechafuroside B, vitexin 2″-O-sulfate] |  |  |  | high water solubility | 
O=c1cc(-c2ccc(O)cc2)oc2c([C@@H]3O[C@H](CO)[C@@H](O)[C@H](O)[C@H]3O)c(O)cc(O)c12 [vitexin] |  | move to n-BuOH fractions; also recorded: move to the n-butanol solvent fraction | very poorly soluble in water |  | 
